{
  "source": "patent US20250255945A1",
  "about": "“CLICK CHEMISTRY HLA POLYPEPTIDES” (IMMUNEO Therapeutics GmbH, priority 2024, published 2025)",
  "data": [
    {"test_system": "peripheral blood mononuclear cells (PBMCs)", "experiment": "IFN-γ ELISPOT assay (ex vivo) with subject PBMCs", "assay_type": "cell-based, human", "conditions": "Table 1, HTAPPs; response in ELISPOT experiments", "description": "(§1) IFNγ ELISpot analysis (for protocol see A. Lalvani, R. Brookes, S. Hambleton, W. J. Britton, A. V. S. Hill, A. J. McMichael, J Exp Med 1997; 186 (6): 859-865) was performed ex vivo (without further in vitro culturing for expansion) using PBMCs depleted of CD4+ and enriched for CD8+ T cells (CD8+ effectors), or depleted of CD8+ and enriched for CD4+ T cells (CD4+ effectors). Tests were performed in duplicate and with a positive and negative control, Multiscreen filter plates (Merck Millipore) pre-coated with IFNγ-specific antibodies (ELISpotPro kit, Mabtech). 267.000 Cells were used per plate. Plates were scanned using an AID Classic Robot ELISPOT Reader and analyzed by AID ELISPOT 7.0 software (AID Autoimmun Diagnostika). Antigen Peptides (except negative and positive control group) were done in duplicates, spot counts were taken as mean values of each duplicate.\n(§2) The immunogenicity of each of the six peptides was analyzed by IFN-γ secretion by subject peripheral blood mononuclear cells (PBMCs) using ELIspot assay. […]\n(§3) The immunogenicity of each peptide was assessed in peripheral blood mononuclear cells (PBMCs) from patients and using the IFN-γ-ELISPOT assay. ELISPOT results were considered positive if the number of spots was at least 2-fold higher than the negative control (medium) and at least 50 spots were detected. […] We also tested the effect of delivery aiding peptides (DACP-1) and peptide extension by overlapping tandemization and tandemization on the immunogenicity of the epitopes.", "values": [
      {"substance": "1 (KLVVVGAVGVGKSALTI) [compound 1]", "Elispot [nspots/pM]": "32,5 nspots/pM"},
      {"substance": "8 (KKIRKPRTIYSSLQLQAAAYGIYDALFDIESKVDPSK) [compound 8]", "Elispot [nspots/pM]": "351,5 nspots/pM"},
      {"substance": "5 (IKPRILGFDTPHYWLC) [compound 5]", "Elispot [nspots/pM]": "267,5 nspots/pM"},
      {"substance": "9 (LPVMLLIVARPVKLAAFPTSLSD) [compound 9]", "Elispot [nspots/pM]": "289,5 nspots/pM"},
      {"substance": "16 (RERRVASWAMSFERL) [compound 16]", "Elispot [nspots/pM]": "326,5 nspots/pM"},
      {"substance": "6 (NVGLSAVCTYNLSTAAAYCIHSINLHNFSNSVL) [compound 6]", "Elispot [nspots/pM]": "330,5 nspots/pM"},
      {"substance": "4 (ETNFKSLFHDLFQKVEE) [compound 4]", "Elispot [nspots/pM]": "233,5 nspots/pM"},
      {"substance": "11 (SPLTGGNMAF) [compound 11]", "Elispot [nspots/pM]": "145,5 nspots/pM"}
    ]},
    {"test_system": "peripheral blood mononuclear cells (PBMCs)", "experiment": "IFN-γ ELISPOT assay (ex vivo) with subject PBMCs", "assay_type": "cell-based, human", "conditions": "Table 2, HTAPP-DACP; response in ELISPOT experiments", "description": "as §1, §2, §3", "values": [
      {"substance": "30 (KDYSVLYVVPGPVRFQRQIKIWFQNRRMKWKK) [compound 30]", "Elispot [nspots/pM]": "234,0 nspots/pM"},
      {"substance": "28 (SPRQCSSWTLAAYKLAAFPTSLRQIKIWFQNRRMKWKK) [compound 28]", "Elispot [nspots/pM]": "320,0 nspots/pM"},
      {"substance": "25 (RQRLALEAEKAAYEERGAAEALSVVRQIKIWFQNRRMKWKK) [compound 25]", "Elispot [nspots/pM]": "317,5 nspots/pM"},
      {"substance": "26 (IPDEYGNTALHYAIYNEDKLMRQIKIWFQNRRMKWKK) [compound 26]", "Elispot [nspots/pM]": "347,5 nspots/pM"},
      {"substance": "24 (RERRVASWAMSFERLRQIKIWFQNRRMKWKK) [compound 24]", "Elispot [nspots/pM]": "436,0 nspots/pM"},
      {"substance": "20 (LQEFRRFQDPGRIVAIVRQIKIWFQNRRMKWKK) [compound 20]", "Elispot [nspots/pM]": "500,0 nspots/pM"},
      {"substance": "21 (ETNFKSLFHDLFQKVEERQIKIWFQNRRMKWKK) [compound 21]", "Elispot [nspots/pM]": "334,0 nspots/pM"},
      {"substance": "23 (MLFSNITPKAAYSPLTGGNMAFRQIKIWFQNRRMKWKK) [compound 23]", "Elispot [nspots/pM]": "285,0 nspots/pM"},
      {"substance": "19 (LANSPDLSHLAYYVTKVKEEDAFRQIKIWFQNRRMKWKK) [compound 19]", "Elispot [nspots/pM]": "430,5 nspots/pM"},
      {"substance": "31 (QSYPGSASLAAYSGMPRISKLRQIKIWFQNRRMKWK) [compound 31]", "Elispot [nspots/pM]": "415,0 nspots/pM"},
      {"substance": "27 (LFKDLGLPARTVSTTFRQIKIWFQNRRMKWKK) [compound 27]", "Elispot [nspots/pM]": "196,0 nspots/pM"}
    ]},
    {"test_system": "peripheral blood mononuclear cells (PBMCs)", "experiment": "IFN-γ ELISPOT assay (ex vivo) with subject PBMCs", "assay_type": "cell-based, human", "conditions": "Table 4, HTAPP-DACP related to group therapy", "description": "as §1, §2, §3", "values": [
      {"substance": "36 (EYKLVVVGAVGVGKSALTIQRQIKIWFQNRRMKWKK) [compound 36]", "Elispot [nspots/pM]": "140 nspots/pM"},
      {"substance": "41 (HTLYGHTSTVHCMHLHEKRVRQIKIWFQNRRMKWKK) [compound 41]", "Elispot [nspots/pM]": "39,2 nspots/pM"},
      {"substance": "47 (KLVVVGADGVGKSALTIQLIQNHRQIKIWFQNRRMKWKK) [compound 47]", "Elispot [nspots/pM]": "120,0 nspots/pM"},
      {"substance": "37 (GACRHGDRCSRLHNKPTFSRQIKIWFQNRRMKWKK) [compound 37]", "Elispot [nspots/pM]": "47,5 nspots/pM"},
      {"substance": "34 (DSTPPPGTRVLAMAIYKQSQRQIKIWFQNRRMKWKK) [compound 34]", "Elispot [nspots/pM]": "35,8 nspots/pM"},
      {"substance": "33 (ATYLWWVNNQSLPVSPRAAYLLLTASLLTFWNPRQIKIWFQNRRMKWKK) [compound 33]", "Elispot [nspots/pM]": "271,7 nspots/pM"},
      {"substance": "51 (LLGRNSFEVHVCACPGRDRRQIKIWFQNRRMKWKK) [compound 51]", "Elispot [nspots/pM]": "264,2 nspots/pM"},
      {"substance": "52 (LLGRNSFEVLVCACPGRDRRQIKIWFQNRRMKWKK) [compound 52]", "Elispot [nspots/pM]": "275,0 nspots/pM"},
      {"substance": "42 (ICLTSTVQLIMQLMPFGCLLRQIKIWFQNRRMKWKK) [compound 42]", "Elispot [nspots/pM]": "20,8 nspots/pM"},
      {"substance": "43 (IGHKVDAVFMKDGFFYFFHGTRQYRQIKIWFQNRRMKWKK) [compound 43]", "Elispot [nspots/pM]": "134,2 nspots/pM"},
      {"substance": "46 (KLVVVGACGVGKSALTIQLIQNHRQIKIWFQNRRMKWKK) [compound 46]", "Elispot [nspots/pM]": "54,2 nspots/pM"},
      {"substance": "40 (HTLYGHTSTVCCMHLHEKRVRQIKIWFQNRRMKWKK) [compound 40]", "Elispot [nspots/pM]": "95,0 nspots/pM"},
      {"substance": "35 (EYFMKQMNDARHGGWTTKMDRQIKIWFQNRRMKWKK) [compound 35]", "Elispot [nspots/pM]": "20,0 nspots/pM"},
      {"substance": "44 (KAISTRDPLSKITEQEKDFLWRQIKIWFQNRRMKWKK) [compound 44]", "Elispot [nspots/pM]": "103,3 nspots/pM"}
    ]},
    {"test_system": "peripheral blood mononuclear cells (PBMCs)", "experiment": "IFN-γ ELISPOT assay (ex vivo) with subject PBMCs", "assay_type": "cell-based, human", "conditions": "Table 5, HTAPP-DACP related to group therapy", "description": "as §1, §2, §3", "values": [
      {"substance": "66 (TIHYNYMCNSSCMGSMNRRPILTIRQIKIWFQNRRMKWKK) [compound 66]", "Elispot [nspots/pM]": "13,3 nspots/pM"},
      {"substance": "58 (NSSCMGGMNWRPILTIITLRQIKIWFQNRRMKWKK) [compound 58]", "Elispot [nspots/pM]": "228,3 nspots/pM"},
      {"substance": "53 (MAQYLSTLLLLLATLAVALRQIKIWFQNRRMKWKK) [compound 53]", "Elispot [nspots/pM]": "190,8 nspots/pM"},
      {"substance": "68 (YKLVVVGAGDVGKSALTIQLIQNHFVDRQIKIWFQNRRMKWKK) [compound 68]", "Elispot [nspots/pM]": "154,2 nspots/pM"},
      {"substance": "64 (STRDPLSEITKQEKDFLWSHRQIKIWFQNRRMKWKK) [compound 64]", "Elispot [nspots/pM]": "80,8 nspots/pM"},
      {"substance": "60 (PSDQDLLRCHVLTSGIFETRQIKIWFQNRRMKWKK) [compound 60]", "Elispot [nspots/pM]": "163,3 nspots/pM"},
      {"substance": "54 (MLPQIPFLLLVSLNLVHGVFRQIKIWFQNRRMKWKK) [compound 54]", "Elispot [nspots/pM]": "246,7 nspots/pM"},
      {"substance": "57 (NSSCMGGMNQRPILTIITLRQIKIWFQNRRMKWKK) [compound 57]", "Elispot [nspots/pM]": "102,5 nspots/pM"},
      {"substance": "55 (MTEYKLVVVGARGVGKSALRQIKIWFQNRRMKWKK) [compound 55]", "Elispot [nspots/pM]": "44,2 nspots/pM"},
      {"substance": "61 (QHVKITDFGRAKLLGAEEKRQIKIWFQNRRMKWKK) [compound 61]", "Elispot [nspots/pM]": "76,7 nspots/pM"},
      {"substance": "62 (RVCACPGRDWRTEEENLRKRQIKIWFQNRRMKWKK) [compound 62]", "Elispot [nspots/pM]": "279,2 nspots/pM"},
      {"substance": "59 (PSDQDLLRCCVLTSGIFETRQIKIWFQNRRMKWKK) [compound 59]", "Elispot [nspots/pM]": "100,8 nspots/pM"},
      {"substance": "56 (MTEYKLVVVGASGVGKSALTIQLIQNHRQIKIWFQNRRMKWKK) [compound 56]", "Elispot [nspots/pM]": "56,7 nspots/pM"},
      {"substance": "67 (YGIPFIETSTKTRQRVEDARQIKIWFQNRRMKWKK) [compound 67]", "Elispot [nspots/pM]": "248,3 nspots/pM"},
      {"substance": "63 (SQHMTEVVRHCPHHERCSDRQIKIWFQNRRMKWKK) [compound 63]", "Elispot [nspots/pM]": "88,3 nspots/pM"}
    ]},
    {"test_system": "peripheral blood mononuclear cells (PBMCs)", "experiment": "IFN-γ ELISPOT assay (ex vivo) with subject PBMCs", "assay_type": "cell-based, human", "conditions": "Table 6, further HTAPPs, HTAPP-DACPs and reference sequences", "description": "as §1, §2, §3", "values": [
      {"substance": "80 (NFMLNQNVMLSVKGITKNVHTRQIKIWFQNRRMKWKK) [compound 80]", "Elispot [nspots/pM]": "232,5 nspots/pM"},
      {"substance": "84 (PPSNATAETQPIPQKAAYLEAIFLRDWDSLYSHDLDTSADS) [compound 84]", "Elispot [nspots/pM]": "197,5 nspots/pM"},
      {"substance": "74 (SPITSVLSADLFPKA) [compound 74]", "Elispot [nspots/pM]": "128,5 nspots/pM"},
      {"substance": "82 (LEKLYLYFNKISKIENLEKLIKRQIKIWFQNRRMKWKK) [compound 82]", "Elispot [nspots/pM]": "305,0 nspots/pM"},
      {"substance": "71 (QRQLNTALPQPFREAPAYSNRQIKIWFQNRRMKWKK) [compound 71]", "Elispot [nspots/pM]": "270,5 nspots/pM"},
      {"substance": "75 (SAANIRALNVPPSLA) [compound 75]", "Elispot [nspots/pM]": "196,0 nspots/pM"},
      {"substance": "78 (GIYDALFDIESKVDPSK) [compound 78]", "Elispot [nspots/pM]": "134,5 nspots/pM"},
      {"substance": "81 (LTPKKLQCVDLHVISNDRQIKIWFQNRRMKWKK) [compound 81]", "Elispot [nspots/pM]": "272,5 nspots/pM"},
      {"substance": "83 (QSYPGSASLAAYSGMPRISKLRQIKIWFQNRRMKWKK) [compound 83]", "Elispot [nspots/pM]": "367,5 nspots/pM"},
      {"substance": "72 (MLFSNITPK) [compound 72]", "Elispot [nspots/pM]": "148,0 nspots/pM"},
      {"substance": "69 (VAFLGCPGFAGVLQT) [compound 69]", "Elispot [nspots/pM]": "149,0 nspots/pM"},
      {"substance": "79 (AIYNEDKLMAKALLLYGADIERQIKIWFQNRRMKWKK) [compound 79]", "Elispot [nspots/pM]": "242,5 nspots/pM"}
    ]},
    {"test_system": "peripheral blood mononuclear cells (PBMCs)", "experiment": "IFN-γ ELISPOT assay (ex vivo) with subject PBMCs", "assay_type": "cell-based, human", "conditions": "tandem peptide in relation to the more immunogenic single HTAP (SEQ-ID-No.: 77 / 78)", "description": "as §1, §2, §3", "values": [
      {"substance": "KKIRKPRTIYSSLQLQAAAYGIYDALFDIESKVDPSK [SEQ-ID-No.: 8]", "increase in Elispot count": "more than 237%"}
    ]}
  ]
}
